From patent US20230382889A1 (Volastra Therapeutics, Inc., priority 2022, published 2023) come the findings set out here.

As a reminder, the IC50 is the point on the concentration scale where inhibition reaches its midpoint. The low end stands for inhibition by little substance, the high end for a need for much substance.

Chain of hKIF18A (1-374) (Q8NI77 1-374): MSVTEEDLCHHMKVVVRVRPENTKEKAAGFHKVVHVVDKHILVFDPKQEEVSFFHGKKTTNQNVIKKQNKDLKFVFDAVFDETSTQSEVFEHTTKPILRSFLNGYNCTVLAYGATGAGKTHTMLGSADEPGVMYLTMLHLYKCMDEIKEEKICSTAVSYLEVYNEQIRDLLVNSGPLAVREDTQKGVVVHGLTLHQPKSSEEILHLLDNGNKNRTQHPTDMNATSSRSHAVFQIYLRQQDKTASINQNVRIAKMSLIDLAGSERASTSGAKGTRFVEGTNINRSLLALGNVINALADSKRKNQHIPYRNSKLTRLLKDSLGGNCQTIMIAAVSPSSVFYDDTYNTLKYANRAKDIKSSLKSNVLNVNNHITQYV

In this test the target is hKIF18A (1-374) (Homo sapiens (Human), UniProt Q8NI77). In words: Inhibition of KIF18A microtubule-dependent ATPase activity (ADP-Glo). It is filed as biochemical. The note with it: 4 nM hKIF18A (1-374). The protocol:
Test compounds were plated in a 3× dilution scheme in a 384-well plate. Assay buffer: 80 mM PIPES (pH 6.9), 1 mM MgCl2, 75 mM KCl, 1 mM EGTA, 1 mM DTT, 0.01% BSA, 0.005% Tween-20, 1 μM Taxol in H2O. […] After incubation at room temperature for 30 min, 2.5 μL of microtubule mix was added [0.2 mg/mL pre-formed microtubules, 2.0 mM ATP in assay buffer], the plate was centrifuged for 30 s and then incubated at 28° C. for 60 min. 5 μL of Promega® ADP-Glo Max R1 was added, the plate was centrifuged for 30 s, and the mixture incubated for 4 h at room temperature. 10 μL of Promega® ADP-Glo Max R2 was added, the plate centrifuged for 30 s, and incubated for 60 min at room temperature. Luminescence was measured with an Envision plate reader, and % Inhibition was calculated for each well as: ([max−min]−[test−min])/[max−min]. IC50 values were calculated from concentration vs. % Inhibition data via a four-parameter variable slope model.
For orientation: ADP-Glo first removes unused ATP, then detects ADP through luciferase.
On to `CS(=O)(=O)Nc1ccc(-n2cc(-c3cccc(N4CC5(CCC5)C4)n3)nn2)c(N2CCC3(CC2)CC3)c1` [Compound 57, N-(4-(4-(6-(2-azaspiro[3.3]heptan-2-yl)pyridin-2-yl)-1H-1,2,3-triazol-1-yl)-3-(6-azaspiro[2.5]octan-6-yl)phenyl)methanesulfonamide], for which half-maximal inhibition (IC50) required 37 nM.

`Cc1cc(-c2cnc(-c3ccc(NS(C)(=O)=O)cc3N3CCC4(CC3)CC4)[nH]2)nc(N2CCC(F)(F)CC2)n1` [Compound 26, N-(4-(5-(2-(4,4-difluoropiperidin-1-yl)-6-methylpyrimidin-4-yl)-1H-imidazol-2-yl)-3-(6-azaspiro[2.5]octan-6-yl)phenyl)methanesulfonamide] came in with an IC50 of 44 nM.

As to `O=S(=O)(CCO)Nc1ccc(-c2nnc(-c3cccc(N4CCC(F)(F)CC4)n3)[nH]2)c(N2CCC3(CC2)CC3)c1` [Compound 8, N-(4-(5-(6-(4,4-difluoropiperidin-1-yl)pyridin-2-yl)-4H-1,2,4-triazol-3-yl)-3-(6-azaspiro[2.5]octan-6-yl)phenyl)-2-hydroxyethane-1-sulfonamide], the midpoint of inhibition, the IC50, lay at 5.1 nM.

In turn, `CC(C)(C)NS(=O)(=O)c1cccc(-c2cn(-c3ccc(NS(=O)(=O)CCO)cc3N3CCC4(CC3)CC4)nn2)c1` [Compound 121, N-(tert-butyl)-3-(1-(4-((2-hydroxyethyl)sulfonamido)-2-(6-azaspiro[2.5]octan-6-yl)phenyl)-1H-1,2,3-triazol-4-yl)benzenesulfonamide] showed an IC50 of 14 nM.

For “N-(4-(4-(2-(cyclopentyloxy)-6-methylpyrimidin-4-yl)-1H-1,2,3-triazol-1-yl)-3-(6-azaspiro[2.5]octan-6-yl)phenyl)-2-hydroxyethane-1-sulfonamide [Compound 109]”, inhibition was half-maximal at 8.8 nM (IC50).

The molecule `O=S(=O)(CCO)Nc1ccc(-c2cn(-c3ccc(F)c(N4CCCCC4)n3)nn2)c(N2CCC3(CC2)CC3)c1` [Compound 147, N-(4-(1-(5-fluoro-6-(piperidin-1-yl)pyridin-2-yl)-1H-1,2,3-triazol-4-yl)-3-(6-azaspiro[2.5]octan-6-yl)phenyl)-2-hydroxyethane-1-sulfonamide] returned an IC50 of 22 nM.

For `CS(=O)(=O)Nc1ccc(-c2cnc(-c3cccc(N4CCOCC4)n3)[nH]2)c(N2CCC3(CC2)CC3)c1` [Compound 27, N-(4-(2-(6-morpholinopyridin-2-yl)-1H-imidazol-5-yl)-3-(6-azaspiro[2.5]octan-6-yl)phenyl)methanesulfonamide], the IC50 is more than 3000 nM.

For the molecule `O=S(=O)(CCO)Nc1ccc(-n2cc(-c3ccc(F)c(N4CCCCC4)n3)nn2)c(N2CCC3(CC2)CC3)c1` [Compound 136, N-(4-(4-(5-fluoro-6-(piperidin-1-yl)pyridin-2-yl)-1H-1,2,3-triazol-1-yl)-3-(6-azaspiro[2.5]octan-6-yl)phenyl)-2-hydroxyethane-1-sulfonamide], half-maximal inhibition (IC50) required 6.5 nM. This lies in the single-digit nanomolar range.

Molecule `CCS(=O)(=O)Nc1ccc(-n2cc(-c3cc(CO)cc(N4CCC(F)(F)CC4)n3)nn2)c(N2CCC3(CC2)CC3)c1` [Compound 131, N-(4-(4-(6-(4,4-difluoropiperidin-1-yl)-4-(hydroxymethyl)pyridin-2-yl)-1H-1,2,3-triazol-1-yl)-3-(6-azaspiro[2.5]octan-6-yl)phenyl)ethanesulfonamide] yielded an IC50 of 29 nM. This IC50 is about 4.5-fold higher than that of the molecule before.

In the case of `O=S(=O)(CCO)Nc1ccc(-c2cn(-c3ccc(F)c(N4CCC(F)(F)CC4)n3)nn2)c(N2CCC3(CC2)CC3)c1` [Compound 140, N-(4-(1-(6-(4,4-difluoropiperidin-1-yl)-5-fluoropyridin-2-yl)-1H-1,2,3-triazol-4-yl)-3-(6-azaspiro[2.5]octan-6-yl)phenyl)-2-hydroxyethane-1-sulfonamide], the IC50 is 18 nM.

Take `CS(=O)(=O)Nc1ccc(-n2cc(-c3cccc(CN4CCC(F)(F)CC4)n3)nn2)c(N2CCC3(CC2)CC3)c1` [Compound 23, N-(4-(4-(6-((4,4-difluoropiperidin-1-yl)methyl)pyridin-2-yl)-1H-1,2,3-triazol-1-yl)-3-(6-azaspiro[2.5]octan-6-yl)phenyl)methanesulfonamide]: the IC50 was 11 nM.

As to `O=S(=O)(CCO)Nc1ccc(-n2cc(-c3ccc(C(O)C4CCCC4)o3)nn2)c(N2CCC3(CC2)CC3)c1` (single isomer, unassigned) [Compound 51b], the IC50 was determined as 3.1 nM.

`O=S(=O)(CCO)Nc1ccc(-n2cc(-c3ccc(F)c(N4CC5CC5C4)n3)nn2)c(N2CCC3(CC2)CC3)c1` (stereo not shown) [Compound 153, N-(4-(4-(6-(3-azabicyclo[3.1.0]hexan-3-yl)-5-fluoropyridin-2-yl)-1H-1,2,3-triazol-1-yl)-3-(6-azaspiro[2.5]octan-6-yl)phenyl)-2-hydroxyethane-1-sulfonamide] registered an IC50 of 16 nM.

Consider `CC1CCN(c2cc(NS(=O)(=O)CCO)ccc2-c2cn(-c3ccc(F)c(N4CCC(F)(F)CC4)n3)nn2)CC1` [Compound 141, N-(4-(1-(6-(4,4-difluoropiperidin-1-yl)-5-fluoropyridin-2-yl)-1H-1,2,3-triazol-4-yl)-3-(4-methylpiperidin-1-yl)phenyl)-2-hydroxyethane-1-sulfonamide], for which the IC50 worked out at 17 nM.

`CCS(=O)(=O)Nc1ccc(-n2cc(-c3cc(C)cc(C(O)C4CCC4)n3)nn2)c(N2CCC3(CC2)CC3)c1` (stereo not shown) [Compound 133, N-(4-(4-(6-(cyclobutyl(hydroxy)methyl)-4-methylpyridin-2-yl)-1H-1,2,3-triazol-1-yl)-3-(6-azaspiro[2.5]octan-6-yl)phenyl)ethanesulfonamide] displayed an IC50 of 12 nM.

As for `Cc1cc(-c2cnc(-c3ccc(NS(C)(=O)=O)cc3N3CCC4(CC3)CC4)[nH]2)nc(N2CCC(F)(F)CC2)c1` [Compound 28, N-(4-(5-(6-(4,4-difluoropiperidin-1-yl)-4-methylpyridin-2-yl)-1H-imidazol-2-yl)-3-(6-azaspiro[2.5]octan-6-yl)phenyl)methanesulfonamide], inhibition was half-maximal at 45 nM (IC50).

On to `CS(=O)(=O)Nc1ccc(-n2cc(-c3cccc(N4CCC(F)(F)CC4)n3)nn2)c(N2CC3CC(C3)C2)c1` [Compound 53, N-(3-(3-azabicyclo[3.1.1]heptan-3-yl)-4-(4-(6-(4,4-difluoropiperidin-1-yl)pyridin-2-yl)-1H-1,2,3-triazol-1-yl)phenyl)methanesulfonamide], for which the IC50 came out at 43 nM.

With `Cc1cc(-c2cn(-c3ccc(NS(=O)(=O)CCO)cc3N3CCC4(CC3)CC4)nn2)nc(N2CCC(F)C2)n1` (stereo not shown) [Compound 102, N-(4-(4-(2-(3-fluoropyrrolidin-1-yl)-6-methylpyrimidin-4-yl)-1H-1,2,3-triazol-1-yl)-3-(6-azaspiro[2.5]octan-6-yl)phenyl)-2-hydroxyethane-1-sulfonamide], the IC50 was 16 nM.

As for `O=S(=O)(CCO)Nc1ccc(-c2cn(-c3cccc(OC4CCCC4)n3)nn2)c(N2CCC3(CC2)CC3)c1` [Compound 113, N-(4-(1-(6-(cyclopentyloxy)pyridin-2-yl)-1H-1,2,3-triazol-4-yl)-3-(6-azaspiro[2.5]octan-6-yl)phenyl)-2-hydroxyethane-1-sulfonamide], the IC50 was found to be 23 nM.

In turn, `CS(=O)(=O)Nc1ccc(-c2ncc(-c3cccc(NC4CC(F)(F)C4)n3)[nH]2)c(N2CCC3(CC2)CC3)c1` [Compound 32, N-(4-(5-(6-((3,3-difluorocyclobutyl)amino)pyridin-2-yl)-1H-imidazol-2-yl)-3-(6-azaspiro[2.5]octan-6-yl)phenyl)methanesulfonamide] had an IC50 of 140 nM.

In turn, `CS(=O)(=O)Nc1ccc(-n2cc(-c3ccc(F)c(N4CCC(F)(F)CC4)n3)nn2)c(N2CCC3(CC2)CC3)c1` [Compound 149, N-(4-(4-(6-(4,4-difluoropiperidin-1-yl)-5-fluoropyridin-2-yl)-1H-1,2,3-triazol-1-yl)-3-(6-azaspiro[2.5]octan-6-yl)phenyl)methanesulfonamide] returned an IC50 of 21 nM.

`CS(=O)(=O)Nc1ccc(-n2cc(-c3ccc(C(O)C4CCCC4)o3)nn2)c(N2CCC3(CC2)CC3)c1` (stereo not shown) [Compound 25, N-(4-(4-(5-(cyclopentyl(hydroxy)methyl)furan-2-yl)-1H-1,2,3-triazol-1-yl)-3-(6-azaspiro[2.5]octan-6-yl)phenyl)methanesulfonamide] registered an IC50 of 4.7 nM. This IC50 lies about 4.5-fold lower than the previous one.

As to `CCS(=O)(=O)Nc1ccc(-n2cc(-c3cccc(S(=O)(=O)NC(C)(C)C)c3)nn2)c(N2CCC(C(F)F)CC2)c1` [Compound 118, N-(tert-butyl)-3-(1-(2-(4-(difluoromethyl)piperidin-1-yl)-4-(ethylsulfonamido)phenyl)-1H-1,2,3-triazol-4-yl)benzenesulfonamide], the IC50 turned out to be 15 nM.

For the molecule `CCS(=O)(=O)Nc1ccc(-n2cc(-c3cc(C)cc(C(O)C4CCCC4)n3)nn2)c(N2CCC3(CC2)CC3)c1` (stereo not shown) [Compound 138, N-(4-(4-(6-(cyclopentyl(hydroxy)methyl)-4-methylpyridin-2-yl)-1H-1,2,3-triazol-1-yl)-3-(6-azaspiro[2.5]octan-6-yl)phenyl)ethanesulfonamide], the IC50 came to 26 nM.

The molecule `O=S(=O)(CCO)Nc1ccc(-c2cn(-c3ccc(F)c(N4CC5CC5C4)n3)nn2)c(N2CCC3(CC2)CC3)c1` (stereo not shown) [Compound 142, N-(4-(1-(6-(3-azabicyclo[3.1.0]hexan-3-yl)-5-fluoropyridin-2-yl)-1H-1,2,3-triazol-4-yl)-3-(6-azaspiro[2.5]octan-6-yl)phenyl)-2-hydroxyethane-1-sulfonamide] returned an IC50 of 26 nM.
